According to PMC9763021, “Comprehensive Assessment of Biomolecular Interactions of Morpholine-Based Mixed Ligand Cu(II) and Zn(II) Complexes of 2,2′-Bipyridine as Potential Anticancer and SARS-CoV-2 Agents: A Synergistic Experimental and Structure-Based Virtual Screening” (Bioinorganic Chemistry and Applications, 2022):

Tests used:
[1] = tested on: ethidium bromide bound DNA (CT-DNA); experiment: Ethidium bromide-DNA fluorescence quenching (emission titration); type: binding, calf thymus; settings: for Scatchard analysis KSA / Scatchard analysis n / LWB method KLB: DNA; for Kass (DNA), SV method II / KSV (DNA), SV method I: EB-DNA; for KSV (DNA), SV method I: 610 nm; for Kapp: KEB = 10^7 M^−1 at 50 μM EB; for Kq (DNA), SV method I: Kq=KSV/τ0, τ0 = 10^−8 S; for LWB method KLB: Lineweaver–Burk; for P (DNA), ratio of fluorescence quantum efficiency: intercept of F/F0 vs 1/[DNA]; for n (DNA), SV method II: number of binding sites; for ∆Gb° (DNA), SV method II: –RT lnKass, 298 K
Description: The experiment was performed in the 200 to 800 nm region. This is supporting evidence for the complexes' manner of deoxyribonucleic acid binding. When DNA (200 μM) was present or absent, we carefully monitored the intensity variations between 610 nm and 510 nm during the initial emission and excitation of EB [6, 28, 37]. Similarly, emission titrations for BSA interaction with different concentrations between 2.5 μM and 25 μM for all substances were conducted in a Tris-HCl buffer solution (pH: 7.4) between the regions of 300 nm and 400 nm.
Emission titration is a more sensitive approach to examining the binding tendency between chemical substances and biomolecules. The emission measurements are extensively supported to scrutinize the interacting modes between compounds and deoxyribonucleic acid. In the presence of deoxyribonucleic acid (240 μM) in a Tris-HCl buffer solution (pH: 7.2) at room temperature, none of the test compounds emitted fluorescence. The titrations were also executed with the EB molecule, which is also a comparatively low fluorescence emission in Tris-HCl buffer solution (pH: 7.2) in the free state. […] In the investigation, the addition of sample concentrations (0–240 μM) to the solution of DNA-EB results in a notable reduction in the emission intensity at 610 nm (Figure 5 and Table 4). As a result of intense intercalation, the complexes displace the EB in the DNA-EB adduct, causing the emission intensity to drop. The photoelectron shift from the DNA's guanine base to the excited states may be the cause of the frequency of quenching in the emission of chemicals by DNA. Therefore, EB can be utilized as a fluorescent probing agent in the competitive binding experiment.
K SV is denoted as Stern–Volmer binding constant; Kass is represented as association binding constant; Kapp is represented as apparent binding constant, Kapp=KEB[EB]/[compound]=500/[compound], KEB = 10^7 M^−1 at the concentration of 50 μM EB; Gibb's free energy change ΔGb°=–RT lnKass; Kq is represented as bimolecular quenching rate constant/Stern–Volmer dynamic quenching rate constant (Kq=KSV/τ0), average life time of the biomolecular quenching in the absence of a quencher (τ0) = 10^−8 S; Gibb's free energy change ΔGb°=–RT lnKass (where R = […], T = 298 K); KLB is represented as Lineweaver–Burk (LWB) binding constant; KSA is represented as Scatchard association binding constant; Kapp is denoted as apparent binding constant; n is the number of binding sites; P is a ratio of fluorescence quantum efficiency of DNA bound and free complex (P=ɸb/ɸf), which is obtained as intercept from plot F/F0 vs. 1/[DNA], Error limit is ± 2.5% (P < 0.025).(12) Fcorr=Fobs×e^Aex×dex+Aem×dem/2=Fobs×e^Aex+Aem/2, where Fcorr and Fobs are represented as the IFE-corrected fluorescence and observed (uncorrected) emission intensities, respectively. dex and dem are denoted as the cuvette path lengths in the excitation and emission directions, respectively. Aex and Aem are represented as the change in absorbance at the excitation and fluorescence wavelengths, respectively.(13) F0 /F=1+KSVQ=1+Kq τ0, where [Q] is represented as the sample concentration, the emission intensities F0 and F of DNA/BSA in the absence and presence of the quencher (sample), respectively.(14) F0 /F−1=F0−F/F=KSVQlogF0−F/F=logKass+n logQ, (15) KEBEB=Kappcompound, (16) 1/F0−F=1/F0 KLBQ+1/F0 , (17) γ/CF =KSCn−γ, where γ = [(F0 − F)/F0], and CF is denoted as the concentration of sample alone.
The linear regression correlation coefficient (R^2) values for all substances further confirmed that there is no found inner filter effect due to these values are greater than 0.95. Moreover, the following Stern–Volmer equations (13)–(15) were employed to determine the KSV, Kq, and n values (Table 4). The KSV findings were measured from the slope to intercept ratio of the linear regression plot of F0/F vs. [Q] by the SV method I (Figure S22). […]

[2] = DPPH radical scavenging assay; type: biochemical; settings: for % Inhibition DPPH: 517 nm
Description: All samples were evaluated for their scavenging ability with the help of UV-visible spectrophotometer at different concentrations of 40, 80, 120, 160, 200, and 240 μM [6, 28]. While performing the antioxidant properties for the DPPH, hydroxyl, superoxide, and nitric oxide radical scavenging, the absorbance at 517, 230, 590, and 546 nm, respectively, was closely observed. In addition, the observed IC50 values of all samples were compared with ascorbic acid.
The colour of an aqueous or methanol solution changes from deep purple to pale yellow when DPPH, a stable chromogen free radical, combines with an antioxidant molecule, which means that DPPH quickly absorbs the hydrogen or electrons from the donor groups. In this case, for the baseline correction, a blank DPPH solution in the absence of a test compound was employed, and 517 nm (ε = 8320 M^−1·cm^−1) was attained to have a significant absorption maximum. […] The DPPH radicals are reduced by an antioxidant compound (AH), in which the reduction of electronic absorbance for each compound was vigilantly noted at 517 nm. The capacity to block radicals improves as the sample concentration increases. The assessed percentage of maximum inhibition for all substances was found at 240 μM in the subsequent order: (ascorbic acid) (85.65) > (1a) 68.64 > (2a) 59.55 > (HL) 52.45. […] Moreover, the % of scavenging or maximum inhibition for all substances is estimated with the aid of equation (44) (Table S14).(43) Scavanging%=A0−AS/A0×100

| SMILES | Scatchard analysis KSA [1] [M⁻¹] | Scatchard analysis n [1] | Kass (DNA), SV method II [1] [M⁻¹] | KSV (DNA), SV method I [1] [M⁻¹] | Kapp [1] [M⁻¹] | Kq (DNA), SV method I [1] [M⁻¹ s⁻¹] | LWB method KLB [1] [M⁻¹] | P (DNA), ratio of fluorescence quantum efficiency [1] | n (DNA), SV method II [1] | ∆Gb° (DNA), SV method II [1] [kJM^−1] | % Inhibition DPPH ([2]; 40 µM) [%] | % Inhibition DPPH ([2]; 80 µM) [%] | % Inhibition DPPH ([2]; 120 µM) [%] | % Inhibition DPPH ([2]; 160 µM) [%] | % Inhibition DPPH ([2]; 200 µM) [%] | % Inhibition DPPH ([2]; 240 µM) [%] | IC50 [2] [µM] |
| --- | --- | --- | --- | --- | --- | --- | --- | --- | --- | --- | --- | --- | --- | --- | --- | --- | --- |
| [O-]c1ccccc1N=Cc1ccc(N2CCOCC2)cc1.[O-]c1ccccc1N=Cc1ccc(N2CCOCC2)cc1.[Zn+2].c1ccc(-c2ccccn2)nc1 [(2a), [Zn(L)2(bpy)]] | 30190 | 0.971 | 17368 | 32694 | 6.569e+06 | 3.2694e+12 | 15630 | 0.1832 | 1.055 | −24.187 | 12.75 | 24.73 | 30.02 | 39.68 | 48.79 | 59.55 |  |
| Oc1ccccc1N=Cc1ccc(N2CCOCC2)cc1 [(HL), 2-(4-morpholinobenzylideneamino)phenol] | 23194 | 1.096 | 9606 | 11636 | 5.829e+06 | 1.1636e+12 | 6985 | 0.0900 | 0.973 | −22.720 | 09.45 | 15.21 | 26.36 | 34.56 | 39.41 | 52.45 |  |
| [Cu+2].[O-]c1ccccc1N=Cc1ccc(N2CCOCC2)cc1.[O-]c1ccccc1N=Cc1ccc(N2CCOCC2)cc1.c1ccc(-c2ccccn2)nc1 [(1a), [Cu(L)2(bpy)]] | 33151 | 1.033 | 50564 | 52474 | 9.894e+06 | 5.2474e+12 | 18846 | 0.2000 | 1.168 | −26.835 | 17.53 | 30.62 | 35.74 | 51.72 | 57.95 | 68.64 | 160 |
